Experimental data as given in patent US6893846B2, “Primers for use in detecting beta-lactamases” (priority 1998, dated 2005).

Key:
SHV and TEM genes [1] = experiment: PCR amplification with TEM and SHV primers; design: species or system Escherichia coli
Method: (§1) The organisms were inoculated into 5 ml of Luria Bertani (LB) broth (Difco, Detroit, Mich.) and incubated for 20 hours at 37° C. with shaking. Cells from 1.5 ml of overnight culture were harvested by centrifugation at 17,310×g in an Hermle centrifuge for 5 minutes. After the supernatant was decanted, the pellet was resuspended in 500 μl of distilled water. The cells were lysed by heating at 95° C. for 10 minutes and cellular debris was removed by centrifugation for 5 minutes at 17,310×g. The supernatant was used as source of template for amplification.
(§2) The following oligonucleotide primers specific for the SHV and TEM genes were designed by using MacVector version 4.5 (Kodak/IBI): SHV genes: A [5′-([…])-3′] (SEQ ID NO:10) and B [5′-([…])-3′] (SEQ ID NO:11) corresponding to nucleotide numbers 103 to 121 and 988 to 970, respectively, of Mercier et al., Antibicrob. Agents Chemother. 34:1577-1583 (1990)); TEM genes: C [5′-([…])-3′ (SEQ ID NO:5) and D [5′-([…])-3′ (SEQ ID NO:1) corresponding to nucleotide numbers 90 to 105 and 1062 to 1042, respectively, of Sutcliff et al., Proc. Nat. Aca. Sci. USA, 75:3737-3741 (1978). Primers A and B amplified a 885 base pair fragment while primers C and D amplified a 971 base pair fragment. The specificity of the SHV and TEM primers for amplification of SHV and TEM genes respectively was tested by using the following beta-lactamase controls; TEM-I (pACYC177), MIR-1 (from K. pneumoniae96D) and SHV-7 (pCLL3410).
PCR amplifications were carried out on a DNA Thermal Cycler 480 instrument (Perkin-Elmer, Cetus, Norwalk, Conn.) using the Gene Amp DNA amplification kit containing AmpliTaq polymerase (Perkin Elmer, Roche Molecular Systems, Inc., Branchburg, N.J.). The composition of the reaction mixture was as follows: 10 mM Tris-HCl (pH 8.3), 50 mM KCl, 0.1% TRITON X-100, 1.5 mM MgCl2, 0.2 mM (each) of the four deoxynucleoside triphosphates, and 1.2 U of AmpliTaq in a total volume of 49 μl. A total of 1 μl of sample lysate was added to the reaction mixture, and was centrifuged briefly before […] of mineral oil was layered on the surface. The PCR program consisted of an initial denaturation step at 96° C. for 15 seconds; followed by 24 cycles of DNA denaturation at 96° C. for 15 seconds, primer annealing at 50° C. for 15 seconds and primer extension at 72° C. for 2 minutes. After the last cycle the products were stored at 4° C. The PCR products (1/10 volume) were analyzed by electrophoresis using 1.4% agarose gels in TAE buffer (0.04 M Tris-acetate, 0.002 M EDTA [pH 8.5]). The gels were stained with ethidium bromide and the PCR products were visualized with ultra-violet light. […]

SHV and TEM genes [2] = experiment: PCR amplification with TEM and SHV primers; design: species or system Proteus mirabilis; settings: P. mirabilis Pit 85 (pI 5.6, TEM-26-type)
Method: as §1
The following oligonucleotide primers specific for the SHV and TEM genes were designed by using MacVector version 4.5 (Kodak/IBI): SHV genes: A [5′-([…])-3′] (SEQ ID NO:10) and B [5′-([…])-3′] (SEQ ID NO:11) corresponding to nucleotide numbers 103 to 121 and 988 to 970, respectively, of Mercier et al., Antibicrob. Agents Chemother. […]
PCR amplifications were carried out on a DNA Thermal Cycler 480 instrument (Perkin-Elmer, Cetus, Norwalk, Conn.) using the Gene Amp DNA amplification kit containing AmpliTaq polymerase (Perkin Elmer, Roche Molecular Systems, Inc., Branchburg, N.J.). […] The PCR products (1/10 volume) were analyzed by electrophoresis using 1.4% agarose gels in TAE buffer (0.04 M Tris-acetate, 0.002 M EDTA [pH 8.5]). […]

SHV and TEM genes [3] = experiment: PCR amplification with TEM and SHV primers; design: species or system Klebsiella pneumoniae
Method: as §1, §2
PCR amplifications were carried out on a DNA Thermal Cycler 480 instrument (Perkin-Elmer, Cetus, Norwalk, Conn.) using the Gene Amp DNA amplification kit containing AmpliTaq polymerase (Perkin Elmer, Roche Molecular Systems, Inc., Branchburg, N.J.). The composition of the reaction mixture was as follows: 10 mM Tris-HCl (pH 8.3), 50 mM KCl, 0.1% TRITON X-100, 1.5 mM MgCl2, 0.2 mM (each) of the four deoxynucleoside triphosphates, and 1.2 U of AmpliTaq in a total volume of 49 μl. A total of 1 μl of sample lysate was added to the reaction mixture, and was centrifuged briefly before […] of mineral oil was layered on the surface. The PCR program consisted of an initial denaturation step at 96° C. for 15 seconds; followed by 24 cycles of DNA denaturation at 96° C. for 15 seconds, primer annealing at 50° C. for 15 seconds and primer extension at 72° C. for 2 minutes. After the last cycle the products were stored at 4° C. The PCR products (1/10 volume) were analyzed by electrophoresis using 1.4% agarose gels in TAE buffer (0.04 M Tris-acetate, 0.002 M EDTA [pH 8.5]). The gels were stained with ethidium bromide and the PCR products were visualized with ultra-violet light. […] The larger product which corresponded to the expected size of the SHV specific product was gel purified using a 1.4% agarose in TAE gel and the purified PCR product was used for sequence analysis.

[4] = system: K. pneumoniae and A. hydrophila wound infection; settings: one patient, intravenous, after four weeks of therapy

Row | Substance | Amplification with primers (SHV and TEM genes [1]; E. coli Pit 56 (pI 7.6, SHV-2)) | Amplification with primers (SHV and TEM genes [1]; E. coli Pit 64 (pI 5.6, TEM-26-type)) | Amplification with primers (SHV and TEM genes [2]) | Amplification with primers (SHV and TEM genes [3]; K. pneumoniae Pit 16 (pI 5.6, TEM-26-type)) | Amplification with primers (SHV and TEM genes [3]; K. pneumoniae Pit 82 (pI 8.2, SHV-5)) | Amplification with primers (SHV and TEM genes [3]; K. pneumoniae Pit 100 (pI 7.6, SHV-2)) | clinical outcome of therapy [4]
1 | TEM primers: primer pair C (SEQ ID NO:5) and D (SEQ ID NO:1) specific for the TEM genes (DNA 1 TCGGGGAAATGTGCG; DNA 2 TGCTTAATCAGTGAGGCACC; listed as DNA, chemistry not given here) | No | Yes | Yes | Yes | No | No | 
2 | imipenem/cilastatin |  |  |  |  |  |  | all signs of inflammation resolved
